Converted amounts (≈) assume the structure as drawn. The source made the active and inactive calls. The rule behind the calls is not given here.
Columns and labels:
[1] = Cell cycle arrest in rat RK3E cells expressing k-ras assessed as accumulation at G0/G1 phase at 1 uM after 24 hrs using propidium iodide stain by flow cytometry; format: functional, cell-based
[2] = Antitumor activity against rat RK3E cells expressing k-ras and GFP/Luc genes transplanted in Sprague-Dawley rat assessed as decrease in tumor volume at 5 mg/kg, iv administered 5 days after tumor implantation for 5 times measured after 48 hrs post dose relative to control; format: functional; set-up: scale not given: the % may be the effect or the level left
[3] = Cell cycle arrest in rat RK3E cells expressing k-ras assessed as accumulation at G2/M phase at 2.5 uM after 24 hrs using propidium iodide stain by flow cytometry; format: functional, cell-based
RK3E [4] = assay: Antitumor activity against rat RK3E cells expressing k-ras and GFP/Luc genes transplanted in Sprague-Dawley rat assessed as decrease of PCNA expression at 5 mg/kg, iv administered 5 days after tumor implantation for 5 times measured after 11 days by immunohistochemical staining relative to control; format: functional, organism-based; set-up: dose 5 mg/kg
[5] = molecular target: Cyclin-dependent kinase 1/cyclin B1 (Homo sapiens) (UniProt P06493+P14635); assay: Inhibition of CDK1/cyclin B at 1 uM after 40 mins by lequid scintillation counting; format: protein-complex assay
Cyclin-dependent kinase 1/cyclin B1 (Homo sapiens), sequence (P06493 whole entry, looked up): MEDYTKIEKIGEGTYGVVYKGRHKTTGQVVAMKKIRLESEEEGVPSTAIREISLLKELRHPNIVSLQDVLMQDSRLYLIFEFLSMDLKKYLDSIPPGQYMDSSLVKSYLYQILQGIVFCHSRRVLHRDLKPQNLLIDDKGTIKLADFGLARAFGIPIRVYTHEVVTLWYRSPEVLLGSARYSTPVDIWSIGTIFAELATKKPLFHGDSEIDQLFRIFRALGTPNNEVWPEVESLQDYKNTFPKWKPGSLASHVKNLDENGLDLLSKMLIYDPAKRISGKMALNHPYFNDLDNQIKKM
Cyclin-dependent kinase 1/cyclin B1 (Homo sapiens), sequence (P14635 whole entry, looked up): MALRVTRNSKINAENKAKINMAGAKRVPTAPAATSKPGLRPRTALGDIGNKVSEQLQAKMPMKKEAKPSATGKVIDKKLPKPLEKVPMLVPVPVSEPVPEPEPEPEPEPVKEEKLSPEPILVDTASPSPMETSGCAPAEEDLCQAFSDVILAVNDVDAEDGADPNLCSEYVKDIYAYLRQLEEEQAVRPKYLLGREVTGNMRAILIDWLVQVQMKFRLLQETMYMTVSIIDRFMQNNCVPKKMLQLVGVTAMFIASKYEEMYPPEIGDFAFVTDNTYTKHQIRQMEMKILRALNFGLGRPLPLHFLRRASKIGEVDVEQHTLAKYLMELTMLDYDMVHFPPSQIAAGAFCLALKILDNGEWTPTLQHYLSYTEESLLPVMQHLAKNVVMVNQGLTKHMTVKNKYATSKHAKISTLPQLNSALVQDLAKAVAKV

[6] = Solubility of compound in 3 equimolar NaOH and distilled water; format: physicochemical; details: buffer
MCF7 = assay: Antiproliferative activity against human MCF7 cells after 3 days by SRB assay; format: functional, cell-based; details: MCF7, 72 h
RK3E [7] = assay: Antitumor activity against rat RK3E cells expressing k-ras and GFP/Luc genes transplanted in Sprague-Dawley rat assessed as decrease of tumor growth at 5 mg/kg, iv administered 5 days after tumor implantation for 5 times measured on day 10 by luciferin bioluminescence assay; format: functional, organism-based; set-up: dose 5 mg/kg
[8] = Cell cycle arrest in rat RK3E cells expressing k-ras assessed as accumulation at G2/M phase at 1 uM after 24 hrs using propidium iodide stain by flow cytometry; format: functional, cell-based
[9] = molecular target: T1, High affinity nerve growth factor receptor (Homo sapiens, UniProt P04629); assay: Inhibition of recombinant TrKa at 1 uM preincubated for 15 mins by HTRF assay
Target sequence in this assay (P04629 33-796 limits assumed): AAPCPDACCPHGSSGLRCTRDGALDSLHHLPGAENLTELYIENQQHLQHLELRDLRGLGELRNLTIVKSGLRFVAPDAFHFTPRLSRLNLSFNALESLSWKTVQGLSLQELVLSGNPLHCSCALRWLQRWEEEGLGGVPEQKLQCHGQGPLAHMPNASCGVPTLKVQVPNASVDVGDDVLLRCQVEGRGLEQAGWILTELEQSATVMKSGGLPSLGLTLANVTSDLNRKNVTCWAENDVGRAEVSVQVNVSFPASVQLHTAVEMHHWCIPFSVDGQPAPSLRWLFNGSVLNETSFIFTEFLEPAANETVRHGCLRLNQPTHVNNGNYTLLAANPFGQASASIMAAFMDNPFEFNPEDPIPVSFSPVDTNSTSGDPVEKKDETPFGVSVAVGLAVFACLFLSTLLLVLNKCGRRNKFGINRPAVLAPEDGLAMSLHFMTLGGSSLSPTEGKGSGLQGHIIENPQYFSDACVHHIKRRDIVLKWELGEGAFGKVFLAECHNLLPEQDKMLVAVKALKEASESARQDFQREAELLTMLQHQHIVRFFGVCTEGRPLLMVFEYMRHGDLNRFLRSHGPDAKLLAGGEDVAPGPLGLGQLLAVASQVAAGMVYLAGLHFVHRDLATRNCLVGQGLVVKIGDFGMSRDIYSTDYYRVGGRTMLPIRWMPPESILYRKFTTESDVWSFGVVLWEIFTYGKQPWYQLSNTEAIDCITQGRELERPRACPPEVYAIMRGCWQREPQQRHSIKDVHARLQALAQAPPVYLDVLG

KB = assay: Antiproliferative activity against human KB cells after 3 days by SRB assay; format: functional, cell-based; details: 72 h
[10] = Cell cycle arrest in rat RK3E cells expressing k-ras assessed as accumulation at S phase at 2.5 uM after 24 hrs using propidium iodide stain by flow cytometry; format: functional, cell-based
[11] = Cell cycle arrest in rat RK3E cells expressing k-ras assessed as accumulation at sub G0 phase at 2.5 uM after 24 hrs using propidium iodide stain by flow cytometry; format: functional, cell-based
RK3E [12] = assay: Antitumor activity against rat RK3E cells expressing k-ras and GFP/Luc genes transplanted in Sprague-Dawley rat assessed as increase in apoptotic cells at 5 mg/kg, iv administered 5 days after tumor implantation for 5 times measured after 11 days by TUNEL assay relative to control; format: functional, organism-based; set-up: dose 5 mg/kg
[13] = Aqueous solubility of compound in water; format: physicochemical; details: buffer
[14] = Solubility of compound in 3 equimolar NaOH and 0.1 N NaHCO3 buffer; format: physicochemical
[15] = molecular target: Cyclin-dependent kinase 2/cyclin E1 (Homo sapiens, UniProt P24941); assay: Inhibition of CDK2/cyclin E; format: protein-complex assay
[16] = Cell cycle arrest in rat RK3E cells expressing k-ras assessed as accumulation at G0/G1 phase at 2.5 uM after 24 hrs using propidium iodide stain by flow cytometry; format: functional, cell-based
[17] = Solubility of compound in 2 equimolar NaOH and distilled water; format: physicochemical; details: buffer
[18] = molecular target: Inhibitor of nuclear factor kappa-B kinase subunit beta (Homo sapiens, UniProt O14920); assay: Inhibition of recombinant IKK-beta preincubated for 15 mins by HTRF assay
Inhibitor of nuclear factor kappa-B kinase subunit beta, sequence (O14920 whole entry): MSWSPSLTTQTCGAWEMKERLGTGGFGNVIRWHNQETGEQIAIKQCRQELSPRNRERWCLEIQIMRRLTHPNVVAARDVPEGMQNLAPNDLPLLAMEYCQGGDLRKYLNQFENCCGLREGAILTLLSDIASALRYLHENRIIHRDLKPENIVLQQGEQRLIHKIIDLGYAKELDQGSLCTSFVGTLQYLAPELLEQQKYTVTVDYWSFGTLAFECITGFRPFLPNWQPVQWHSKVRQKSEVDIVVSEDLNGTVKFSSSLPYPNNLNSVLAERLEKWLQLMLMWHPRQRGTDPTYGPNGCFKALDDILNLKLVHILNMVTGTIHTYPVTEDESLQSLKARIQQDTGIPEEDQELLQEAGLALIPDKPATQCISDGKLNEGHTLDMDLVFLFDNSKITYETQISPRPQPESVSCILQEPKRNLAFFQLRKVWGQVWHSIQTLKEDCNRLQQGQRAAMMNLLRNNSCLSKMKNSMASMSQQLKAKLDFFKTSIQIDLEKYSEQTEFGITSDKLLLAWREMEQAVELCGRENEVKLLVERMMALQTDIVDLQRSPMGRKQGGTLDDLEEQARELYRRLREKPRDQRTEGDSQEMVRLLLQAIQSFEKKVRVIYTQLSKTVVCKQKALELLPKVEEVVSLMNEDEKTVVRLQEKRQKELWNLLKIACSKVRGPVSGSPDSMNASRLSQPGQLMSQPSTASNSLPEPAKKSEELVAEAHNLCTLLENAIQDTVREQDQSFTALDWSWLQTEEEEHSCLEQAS

[19] = molecular target: Cyclin-dependent kinase 2/cyclin E1 (Homo sapiens) (UniProt P24864+P24941); assay: Inhibition of CDK2/cyclin E as percent residual activity; format: protein-complex assay; set-up: Residual activity / inhibition: concentration or dose not given beside the values
[20] = molecular target: Cyclin-dependent kinase 1/cyclin B1 (Homo sapiens, UniProt P06493); assay: Inhibition of CDK1/cyclin B after 40 mins by liquid scintillation counting; format: protein-complex assay
Cyclin-dependent kinase 1/cyclin B1, sequence (P06493 whole entry): as the sequence (P06493 whole entry, looked up) above
Cyclin-dependent kinase 1/cyclin B1, sequence (P14635 whole entry, further chain): as the sequence (P14635 whole entry, looked up) above

[21] = Cell cycle arrest in rat RK3E cells expressing k-ras assessed as accumulation at S phase at 1 uM after 24 hrs using propidium iodide stain by flow cytometry; format: functional, cell-based
[22] = Cell cycle arrest in rat RK3E cells expressing k-ras assessed as accumulation at sub G0 phase at 1 uM after 24 hrs using propidium iodide stain by flow cytometry; format: functional, cell-based
Rattus norvegicus = assay: Toxicity in rat RK3E cells expressing k-ras and GFP/Luc genes transplanted in Sprague-Dawley rat assessed as change in body weight at 5 mg/kg, iv administered 5 days after tumor implantation for 5 times measured after 48 hrs post dose; format: organism-based; set-up: dose 5 mg/kg, route intravenous; details: in vivo
[23] = molecular target: T1, High affinity nerve growth factor receptor; assay: Inhibition of recombinant TrKa preincubated for 15 mins by HTRF assay
Target sequence in this assay (P04629 whole entry): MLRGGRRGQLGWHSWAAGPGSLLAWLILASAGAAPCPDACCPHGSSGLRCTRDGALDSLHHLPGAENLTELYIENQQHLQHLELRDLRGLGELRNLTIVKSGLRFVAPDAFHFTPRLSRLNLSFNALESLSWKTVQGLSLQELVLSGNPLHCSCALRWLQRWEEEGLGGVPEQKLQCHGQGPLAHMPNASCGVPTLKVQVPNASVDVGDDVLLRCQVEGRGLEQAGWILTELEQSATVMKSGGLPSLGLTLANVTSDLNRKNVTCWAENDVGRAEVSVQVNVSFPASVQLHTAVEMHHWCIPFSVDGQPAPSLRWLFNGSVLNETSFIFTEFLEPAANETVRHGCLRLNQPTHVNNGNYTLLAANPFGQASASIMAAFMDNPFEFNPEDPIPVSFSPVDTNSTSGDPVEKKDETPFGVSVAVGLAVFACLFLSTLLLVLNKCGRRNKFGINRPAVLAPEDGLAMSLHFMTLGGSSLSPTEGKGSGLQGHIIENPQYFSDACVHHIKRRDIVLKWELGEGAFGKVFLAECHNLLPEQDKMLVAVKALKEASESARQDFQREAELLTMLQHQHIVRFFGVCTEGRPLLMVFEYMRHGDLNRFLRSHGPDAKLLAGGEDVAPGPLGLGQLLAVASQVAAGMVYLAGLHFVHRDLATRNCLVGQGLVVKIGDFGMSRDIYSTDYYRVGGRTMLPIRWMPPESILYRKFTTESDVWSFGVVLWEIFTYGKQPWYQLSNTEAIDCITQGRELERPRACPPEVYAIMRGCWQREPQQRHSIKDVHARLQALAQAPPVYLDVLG

inhibition [5]: Active | solubility [6]: 3000 µg/mL (≈ 8.87 mM) | IC50 (MCF7): 1210 nM | inhibition [9]: 9% | IC50 (KB): 1330 nM | solubility [13]: 10 µg/mL (≈ 0.0296 mM) | solubility [14]: 200 µg/mL (≈ 0.591 mM) | IC50 [15]: 1.91 nM | solubility [17]: 2700 µg/mL (≈ 7.98 mM) | IC50 [18]: 10000 nM | Residual activity [19]: 90% | IC50 [20]: 13 nM | IC50 [23]: 4000 nM
SMILES: O=C1Nc2ccc([N+](=O)[O-])cc2/C1=C1/Nc2ccc(O)cc2/C1=N/O
Activity [1]: 57.7% | Activity [2]: 84.3% | Activity [3]: 5.67% | Activity (RK3E [4]): Active | Activity (RK3E [7]): Active | Activity [8]: 8.16% | Activity [10]: 9.66% | Activity [11]: 5.59% | Activity (RK3E [12]): Active | Activity [16]: 74.5% | Activity [21]: 7.96% | Activity [22]: 8.16% | Activity (Rattus norvegicus): Non-toxic

— ChEMBL document CHEMBL1157914, “5,5'-substituted indirubin-3'-oxime derivatives as potent cyclin-dependent kinase inhibitors with anticancer activity” (J Med Chem, 2010)
